Assay [1] deals with T1, rat squalene epoxidase (Rattus norvegicus, UniProt P52020).
T1 construct: Livers were extracted and homogenized; from tissue; host or cells: liver of SD-strain female rats; microsomes solubilized with 2 % Triton X-100, 105000 x g supernatant
As to the kind of experiment: Squalene epoxidase inhibiting activity (3H-squalene to squalene-2,3-epoxide, solubilized liver microsome fraction). The settings on record: 8 µM 3H-squalene, 37 °C, 30 minutes, read-out: 50 % inhibitory concentration (IC50). Format: biochemical. Background: Microsomes from liver hold many membrane-bound enzymes, among them those of drug oxidation.

Assay [2] has as its system cholesterol biosynthesis in the cultured Hep-G2 cells. Description: Inhibitory activity on cholesterol biosynthesis in cultured cells ([14C] acetate incorporation). The settings on record: HepG2; Human hepatoma (Hep-G2) cells, [14C] sodium acetate, 6 hours; read-out: 50% inhibitory concentration (IC₅₀). Format: cell-based. On the procedure: Human hepatoma (Hep-G2) cells were cultured in 10 cm² dishes until they formed a monolayer. One milliliter of the culture medium was replaced, and 1 µCi of [¹⁴C] sodium acetate and 1 microliter of a dimethyl sulfoxide solution of a test drug were added, and the cells were cultured at 37 °C in air containing 5 % of carbon dioxide for 6 hours.
After the cultivation, the medium was aspirated, and the cells were cooled with ice, and washed with Dulbecco's phosphate buffered saline solution. The resulting cells were scraped by a rubber policeman, and collected by centrifugation. The cells collected were dissolved in 400 microliters of 0.3N sodium hydroxide. A 200 microliters aliquot of the solution was used for extraction, and the remainder, for protein determination.
To 200 microliters of the extracted cells, 15 % ethanolic potassium hydroxide was added, and saponification was carried out at 75 °C for 1 hour. Water (1 ml) was then added, and the mixture was extracted with 2 ml of petroleum ether twice to remove non-saponified materials. The petroleum ether extracts were washed with 1 ml of water, and evaporated under a nitrogen stream. The residue was spotted on a pre-coated silica gel TLC plate using a small amount of chloroform, and developed with hexane/ethyl ether/acetic acid (85:15:4). Cholesterol and squalene portions on the TLC were detected with iodine, and the corresponding TLC portions were cut out. The TLC strips were immersed in a toluene-type scintillator, and radioactivity was counted by a liquid scintillation counter. The results were corrected by the amount of proteins measured by the method described in J. Biol. Chem., vol. 193, page 265, 1951. The 50 % inhibitory concentration (IC₅₀ value) of the compound of the invention on cholesterol biosynthesis in the cultured Hep-G2 cells was calculated.

Assay [3] has as its system cholesterol biosynthesis. Description: Test on inhibition of cholesterol biosynthesis in vivo ([14C] acetate, plasma 14C-cholesterol). The settings on record: male SD rats, 100 mg/kg orally. Here is the method:
Male SD rats, 5 weeks of age, were used in the in vivo test. The rats were kept for 9 days in an environment of reversed light cycle (i.e., dark between 6:00 am and 6:00 pm). The rats were allowed to take a solid diet and water freely. The test drug was orally administered two hours before dark sixth hour when the cholesterol synthesis reached a maximum. Compounds 6 and 44 were administered as a suspension in a 0.5 % aqueous solution of methyl cellulose. Compound 45 was administered in a 0.5 % aqueous solution of methyl cellulose containing 5 % of dimethyl sulfoxide and 1 % Tween 80. The dose was 1 ml/100 g of body weight.
An equal volume of 0.5 % methyl cellulose was administered to a control group. One hour after administration of the test drug, [¹⁴C] sodium acetate (56 mCi/mmole) was intraperitoneally administered to the rats in a dose of 20 µCi/100 g of body weight. At dark sixth hour, a blood sample was obtained from the abdominal artery under ether anesthesia, and the plasma was separated by centrifugation.
Two milliliters of plasma was mixed with a 15 % methanolic potassium hydroxide and saponified by heating at 75 °C for 3 hours. The resulting sample was extracted with 2 ml of petroleum ether twice. The extracts were washed with 2 ml of distilled water, and finally evaporated under a nitrogen stream. The resulting residue was dissolved in a small amount of ethyl ether, and all the solution was spotted on a pre-coated silica gel TLC plate. The plate was developed with a solvent system composed of hexane/ethyl ether/acetic acid (85:15:4). Color formation was carried out by iodine, and the radioactivity of the cholesterol portion was measured by a liquid scintillation counter.
The results were expressed in dpm of the resulting ¹⁴C-cholesterol present in 1 ml of the plasma. The inhibition of cholesterol biosynthesis was calculated by comparing the amounts of ¹⁴C-cholesterol biosynthesized in the test group and that in the control group.

Assay [4] concerns Candida albicans. As to the kind of experiment: Antimycotic activity test (Sabouraud's agar dilution, MIC). The assay is classed as cell-based. The settings on record: 48 h, C. albicans, 37 °C for 2 days, read-out: MIC. Here is the method: (§1) Each of the test fungi was cultured (Candida albicans was cultured overnight in Sabouraud broth; Trichophyton was inoculated in Sabouraud's agar and cultured for 2 days, after which the spores were harvested). Thereafter, one platinum loopful of Candida albicans or Trichophyton (10⁶ cells/ml for C. albicans; 10⁶ spores/ml for Trichophyton) was inoculated in Sabouraud's agar containing the test drug in various concentrations, and cultured (at 37 °C for 2 days for C. albicans; at 28 °C for 5 days for Trichophyton). Then, the minimum growth inhibition concentration (MIC) was measured. […]

The subject of assay [5] is Trichophyton. The description is as above. Format: cell-based. The settings on record: 120 h, 28 °C for 5 days, read-out: MIC. On the procedure: as §1

The values below come from patent EP0318860B1, “Substituted alkylamine derivatives” (BANYU PHARMACEUTICAL CO., LTD., priority 1987, dated 1989).

T1 sequence (P52020 whole entry): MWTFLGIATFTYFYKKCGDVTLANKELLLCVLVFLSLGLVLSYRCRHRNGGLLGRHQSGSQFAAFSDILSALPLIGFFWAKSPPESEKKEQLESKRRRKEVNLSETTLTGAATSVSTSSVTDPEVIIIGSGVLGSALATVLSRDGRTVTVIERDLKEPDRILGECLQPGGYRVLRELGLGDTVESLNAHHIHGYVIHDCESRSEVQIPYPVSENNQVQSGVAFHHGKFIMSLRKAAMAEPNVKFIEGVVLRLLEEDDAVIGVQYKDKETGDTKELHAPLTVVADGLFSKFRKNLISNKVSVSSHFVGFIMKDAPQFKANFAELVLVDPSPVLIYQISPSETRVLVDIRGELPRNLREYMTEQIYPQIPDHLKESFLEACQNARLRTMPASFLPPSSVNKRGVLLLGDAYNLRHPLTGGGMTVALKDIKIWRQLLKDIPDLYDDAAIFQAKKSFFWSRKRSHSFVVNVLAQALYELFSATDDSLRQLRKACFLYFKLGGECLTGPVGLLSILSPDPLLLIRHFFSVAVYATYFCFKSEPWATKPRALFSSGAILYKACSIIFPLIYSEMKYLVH

Usually MIC stands for the lowest concentration found to suppress growth. `CCCN(C/C=C/C#CC(C)(C)C)Cc1cccc(OCc2ccccc2C)c1.Cl` [Compound 45, (E)-N-(6,6-dimethyl-2-hepten-4-ynyl)-N-propyl-3-(2-methylbenzyloxy)benzylamine hydrochloride]: the figures for the IC50 in assay [1] and in assay [2] were 120 nM and 83 nM, respectively. The ¹⁴C-cholesterol in assay [3] (dpm of 14C-cholesterol present in 1 ml of the plasma) was 274±155 dpm. In assay [3] (test group compared with control group), the “Inhibition of cholesterol biosynthesis” value stood at 85%. Also, the MIC in assay [4] and in assay [5] was over 100 µg/mL throughout.
